By IC50 is commonly meant the midpoint of a concentration-inhibition curve.

Test [1] relates to human P-glycoprotein HEK cells (HEK-P-gp). The test is described as follows: H3K27me3 immunocytochemistry assay in P-gp expressing HEK293T cells, with or without elacridar. Type of test: cell-based. The note with it: Homo sapiens, 4 days compound treatment. The essentials:
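HEK293T stably expressing human ABCB1 (vinblastine-selected), 1000 cells/well, treated with serially diluted compound for 4 days at 37° C, with or without 250 nM elacridar. Fixed cells stained with anti-H3K27me3 plus Alexa 488 secondary and Hoechst; imaged at 10×, nuclei identified by Hoechst.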

For another test, the target named is EZH2/PRC2 complex (Homo sapiens, UniProt O75530). As to the kind of experiment: Histone methyltransferase assay (radioisotope-based HotSpot). The format is biochemical. The conditions noted are these: EZH2/PRC2 complex 10 nM, core histone substrate 0.05 mg/ml, 3H-SAM 1 μM; read-out: IC50, inhibitory effects on the HMT enzyme. The procedure:
Effect of compounds of the present disclosure on EZH2/PRC2 complex methyltransferase functional activity was measured using the radioisotope-based HotSpot assay described by Horiuchi, K. Y., et al. Assay Drug Dev Technol. 11(4):227-36 (2013). Briefly, compounds were prepared in a 10-point 3-fold serial dilution in DMSO from a 10 mM stock in ECHO qualified plate using Assist Plus (Integra Biosciences) liquid handler. […] Nanoliter quantities of each compound's concentration series were transferred into the enzyme/substrate mix using (Echo 550, LabCyte Inc. Sunnyvale, Calif.) acoustic dispenser and pre-incubated for 20 min at room temperature. The methylation reaction was initiated by the addition of 1 μl of 5 μM S-Adenosyl-L-[methyl-^3H]methionine (^3H-SAM) and incubated at 30° C. for 1 h. The final concentration of the EZH2/PRC2 complex, core histone substrate and ^3H-SAM were 10 nM, 0.05 mg/ml, and 1 μM respectively. The % activity of test samples were calculated with reference to positive (no compound) and negative (no EZH2/PRC2) controls on the plate using Excel (Microsoft). The resulting values were exported to Prism (GraphPad software) to generate concentration response curves and IC50 values using the four-parameter logistic equation.

The mark [2] stands for this setting: HEK293, 96 h, without elacridar, read-out: IC50, inhibitory activity on human P-glycoprotein HEK cells (HEK-P-gp).
Setting [3] is: HEK293, with 250 nM elacridar, read-out: IC50, inhibitory activity on human P-glycoprotein HEK cells (HEK-P-gp) pretreated with elacridar.

Like-named read-outs stand apart in the source and are kept apart here.

Chain of EZH2/PRC2 complex (O75530 whole entry): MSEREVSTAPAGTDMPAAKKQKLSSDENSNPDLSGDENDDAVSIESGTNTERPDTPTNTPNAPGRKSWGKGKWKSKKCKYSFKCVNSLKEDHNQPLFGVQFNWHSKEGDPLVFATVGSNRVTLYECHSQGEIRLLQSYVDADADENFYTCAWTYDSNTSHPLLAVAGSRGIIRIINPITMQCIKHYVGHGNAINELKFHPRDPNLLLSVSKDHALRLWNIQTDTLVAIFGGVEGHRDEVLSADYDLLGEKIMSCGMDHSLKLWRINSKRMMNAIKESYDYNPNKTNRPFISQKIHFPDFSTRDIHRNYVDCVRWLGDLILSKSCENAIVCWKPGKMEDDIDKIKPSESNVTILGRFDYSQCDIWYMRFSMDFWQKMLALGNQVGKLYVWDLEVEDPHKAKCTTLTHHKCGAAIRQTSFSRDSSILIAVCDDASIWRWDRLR
Chain of EZH2/PRC2 complex (Q15910 whole entry partner): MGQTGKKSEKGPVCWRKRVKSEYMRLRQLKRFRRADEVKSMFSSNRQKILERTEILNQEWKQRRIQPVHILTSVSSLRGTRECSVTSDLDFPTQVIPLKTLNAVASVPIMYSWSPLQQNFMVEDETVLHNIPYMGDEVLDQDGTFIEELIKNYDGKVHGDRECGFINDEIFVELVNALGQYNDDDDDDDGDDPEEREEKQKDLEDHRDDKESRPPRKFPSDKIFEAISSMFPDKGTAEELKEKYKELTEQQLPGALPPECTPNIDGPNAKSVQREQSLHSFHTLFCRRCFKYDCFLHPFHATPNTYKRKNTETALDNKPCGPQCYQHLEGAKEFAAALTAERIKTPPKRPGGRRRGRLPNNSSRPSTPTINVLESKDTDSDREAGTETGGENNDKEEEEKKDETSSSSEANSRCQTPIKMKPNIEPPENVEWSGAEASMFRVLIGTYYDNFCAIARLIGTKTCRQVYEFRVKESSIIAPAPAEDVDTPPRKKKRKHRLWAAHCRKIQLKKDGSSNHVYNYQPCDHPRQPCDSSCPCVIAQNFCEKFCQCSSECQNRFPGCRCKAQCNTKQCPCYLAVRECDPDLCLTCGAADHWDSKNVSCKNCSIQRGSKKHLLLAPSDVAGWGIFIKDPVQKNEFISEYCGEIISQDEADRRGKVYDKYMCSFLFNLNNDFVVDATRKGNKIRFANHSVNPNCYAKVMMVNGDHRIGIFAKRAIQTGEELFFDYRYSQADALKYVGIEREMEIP
Chain of EZH2/PRC2 complex (Q15022 whole entry partner): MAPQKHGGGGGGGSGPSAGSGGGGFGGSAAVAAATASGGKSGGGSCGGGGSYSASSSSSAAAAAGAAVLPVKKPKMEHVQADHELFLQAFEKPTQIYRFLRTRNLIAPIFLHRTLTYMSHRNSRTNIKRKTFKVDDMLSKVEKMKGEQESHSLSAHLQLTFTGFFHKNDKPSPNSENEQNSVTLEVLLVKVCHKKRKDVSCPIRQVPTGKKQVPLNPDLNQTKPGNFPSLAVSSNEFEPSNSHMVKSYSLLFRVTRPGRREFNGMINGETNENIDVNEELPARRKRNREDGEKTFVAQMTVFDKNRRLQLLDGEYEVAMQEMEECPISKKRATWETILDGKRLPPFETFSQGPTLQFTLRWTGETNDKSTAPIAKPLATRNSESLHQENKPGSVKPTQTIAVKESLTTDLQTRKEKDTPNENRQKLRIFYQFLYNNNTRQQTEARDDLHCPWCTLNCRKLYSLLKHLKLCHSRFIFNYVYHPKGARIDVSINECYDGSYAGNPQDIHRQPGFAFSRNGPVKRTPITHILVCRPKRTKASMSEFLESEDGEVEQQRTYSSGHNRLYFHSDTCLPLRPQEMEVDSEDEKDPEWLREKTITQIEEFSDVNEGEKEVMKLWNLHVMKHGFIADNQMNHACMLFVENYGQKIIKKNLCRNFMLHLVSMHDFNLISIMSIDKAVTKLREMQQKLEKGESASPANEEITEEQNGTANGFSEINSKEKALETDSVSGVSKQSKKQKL

For `Cn1nccc1-c1cc2c(n3cc(C#N)nc13)NCc1c(F)ccc3c1[C@@H](CO3)CO2` [Compound 172, (S)-5-fluoro-12-(1-methyl-1H-pyrazol-5-yl)-6,7,15,15a-tetrahydro-1H-benzofuro[4,3-fg]imidazo[r,2′:1,6]pyrido[3,2-b][1,4]oxazonine-10-carbonitrile], the IC50 in test [1] (setting [2]) was 25 to 50 nM; in test [1] (setting [3]), 25 to 50 nM; at EZH2/PRC2 complex, below 25 nM.

Regarding `Cn1cc(Cc2cc3c(n4cnnc24)NCc2cccc4c2[C@@H](CO4)CO3)cn1` [Compound 7, (S)-4-((1-methyl-1H-pyrazol-4-yl)methyl)-7a,8,13,14-tetrahydro-7H-[1,2,4]triazolo[4′,3′:1,6]pyrido[3,2-b]benzofuro[4,3-fg][1,4]oxazonine], the values for the half-inhibitory concentration (IC50) (in test [1] (setting [2]); in test [1] (setting [3]); on EZH2/PRC2 complex) were above 500 nM, 100 to 500 nM and below 25 nM, respectively.

For the compound `COc1ncc(-c2cc3c(n4cnnc24)NCc2c(F)ccc4c2[C@H](CO4)CO3)cn1` [Example 30], the results for the concentration for half-maximal inhibition (IC50) (in test [1] (setting [2]); in test [1] (setting [3]); on EZH2/PRC2 complex) were 50 to 100 nM, 25 to 50 nM and below 25 nM, respectively.

On to `Fc1cncnc1-c1cc2c(n3cnnc13)NCc1c(F)ccc3c1[C@@H](CO3)CO2` [Compound 164, (S)-12-fluoro-4-(5-fluoropyrimidin-4-yl)-7a,8,13,14-tetrahydro-7H-[1,2,4]triazolo[4′,3′:1,6]pyrido[3,2-b]benzofuro[4,3-fg][1,4]oxazonine], for which the concentration for half-maximal inhibition (IC50) (in test [1] (setting [2]); in test [1] (setting [3]); at EZH2/PRC2 complex) was below 25 nM each time.

As to `c1cc2c3c(c1)OC[C@H]3COc1ccc3nncn3c1NC2` [Compound 11, (S)-7a,8,13,14-tetrahydro-7H-[1,2,4]triazolo[4′,3′:1,6]pyrido[3,2-b]benzofuro[4,3-fg][1,4]oxazonine], the results for the IC50 (in test [1] (setting [2]); in test [1] (setting [3]); at EZH2/PRC2 complex) were above 500 nM, above 500 nM and 100 to 500 nM, respectively.

Regarding `Fc1ccc2c3c1CNc1c(cc(C4COC4)c4nncn14)OC[C@@H]3CO2` [Compound 12, (S)-12-fluoro-4-(oxetan-3-yl)-7a,8,13,14-tetrahydro-7H-[1,2,4]triazolo[4′,3′:1,6]pyrido[3,2-b]benzofuro[4,3-fg][1,4]oxazonine], the IC50 was 50 to 100 nM in test [1] (setting [2]), 25 to 50 nM in test [1] (setting [3]) and below 25 nM at EZH2/PRC2 complex.

(Values after US20220160686A1, “MACROCYCLIC AZOLOPYRIDINE DERIVATIVES AS EED AND PRC2 MODULATORS” (Fulcrum Therapeutics, Inc., priority 2019, published 2022).)
